Results published in patent US9733254B2, “Methods and apparatus for the in vitro modelling of drug administration” (THE UNIVERSITY OF BATH, priority 2012, dated 2017).

How the values were obtained:
[1] = Release of excipient from the simulated injection site, HPLC of bath aliquots; type: in vitro ADME; conditions: excipient of generic insulin formulation, 0.5 ml injected; buffer in the cassette
Experimental: Shortly after injection, the protein solubility level decreased as indicated by the drop in % T. As the environment within the cassette equilibrated with the surrounding physiological conditions and the pH shifted towards 7.4, the protein re-solubilised as indicated by the increase in the % T level. The release profile of an excipient, m-cresol, from the injection site was determined from aliquots taken from the surrounding buffer bath at different time points by HPLC following the method specified in “Biodegradation characterisation and kinetics of m-cresol by Lysinibacillus cresolivorans” in Water SA (Online) vol. 37 no. 1 Pretoria January 2011.

[2] = Diffusion through the DERMAROLLER-modified 14000 MWCO dialysis membrane; type: physicochemical; conditions: modified membrane with cut off of 14000 MWCO
Description: As an example, the membrane used in the system was Biodesing dialysis tubing with a molecular weight cut off diameter of 14000 Da. A 3 cm piece of the tubing was cut and the edges were removed to form two sheets of membrane. These sheets of membrane, whilst not separated from each other, were fully hydrated by soaking in deionised water and subsequently placed on Styrofoam covered with aluminium foil. The membrane permeability was then modified using a DERMAROLLER microneedle device. The membrane used can be transparent. […] In contrast, for rhodamine (MW~500 Da) the diffusion through the same membrane took place in one phase. The holes can be made with a DERMAROLLER microneedle device, or with any other method producing size and spatial distribution of holes suitable for the application. The diameter of the holes should be between 0.1 and a 10 micrometers and the spacing between any two adjacent holes between 0.1 and 10 mm.
As an example (FIG. 4), for a series of fluorescent small organic molecules (methylene blue and rhodamine) and fluorescently labelled dextrans with molecular weights between 4 kDa and 2 MDa, the rate constant of diffusion (k, [min^−1]) through the membranes after the modification followed the equation k=−0.01362 log10 (MW of the compound)+0.06065. (R^2=0.9996)

| mode of diffusion through the modified membrane [2] | Compound | time until all the excipient in the injected formulation has left the injection site [1] |
| --- | --- | --- |
|  | Cc1cccc(O)c1 [m-cresol] | less than 50 minutes |
| two phase diffusion | CN(C)c1ccc2nc3ccc(=[N+](C)C)cc-3sc2c1 [methylene blue] |  |
| one phase | rhodamine |  |
